Like-named read-outs stand apart in the source and are kept apart here. Blank lines part the entries; values can stand above or below the molecule they belong to.
Experiments:
[1] = test system: H146 xenograft tumors; test: H146 subcutaneous xenograft model; format: in vivo, SCID mice
Procedure: Tumor sizes were measured 2–3 times per week. Tumor growth inhibition was calculated by using the formula: 100% (mean volume of controls - mean volume of treated)/mean volume of controls.
Figure 10 In vivo antitumor activity of BM-1197. […] Data shown are mean ± SEM for 6–8 mice. (E & F) SCID mice bearing H146 or H1963 cells were treated with 10 mg/kg of BM-1197 IV for the indicated times. Tumor lysates were analyzed by immunoblotting.

[2] = molecular target: T1, Bcl-2 (Mus musculus, UniProt P10417); test: cellular thermal shift assay (CETSA), Bcl-2; format: cell-based; details: 1 µM, 1 h, MEF MCL1−/− cells
T1 construct: endogenous in cells; host or cells: MEF MCL1-/- cells
Procedure: (§1) Drug-target engagement was assessed using CETSA as described by Molina et al.. Briefly, cells were treated with drugs for 1 h, then harvested, washed with PBS, and resuspended in PBS. The resuspended cells were freeze-thawed 4 times. The soluble fraction (lysate) was separated from cell debris by centrifugation at 20000×g for 20 minutes at 4°C and then analyzed by Western blots.
(§2) Drug-treated cells were heated at gradient temperature from 42°C to 62°C for 3 min then freeze-thawed 4 times. The soluble fractions of the lysed cells were analyzed by immunoblotting. (B) MEF MCL1^− ^/− cells were treated with drugs at the indicated doses for 1 h before collected for CETSA.

[3] = test system: MCL1-deficient (MCL1−/−) MEF cells; test: cell growth inhibition, WST assay, MCL1-deficient MEF; format: cell-based, mouse; details: Mus musculus, MEF, 72 h; 3 days, WST assay
Procedure: (§3) All the SCLC cell lines were purchased from American Type Culture Collection (Manassas, VA) and cultured as recommended. All these cell lines were passaged fewer than 6 months after purchase. MCL1 knockout (MCL1^−/−) MEF cells were kindly provided by Dr. David Huang (The Walter and Eliza Hall Institute of Medical Research, Melbourne, Australia). Cell growth inhibition was evaluated by means of a WST-8 assay (Dojindo, Rockville, MD) as described previously. Mitochondrial membrane potential was determined by JC-1 staining using a JC-1 Mitochondrial Membrane Potential Assay kit (Cayman). Apoptosis analysis was performed using an Annexin V/propidium iodide (PI) apoptosis detection kit (Roche Applied Sciences, Indianapolis, IN).
(§4) (B) MCL1^−/− cells were treated with 100 nM of BM-1197 for 16 h and stained with Annexin V/PI for flow cytometry. […] They are given in the order upper left, upper right, lower left, lower right.

[4] = test system: H1417; test: SCLC cell growth inhibition (WST-8), H1417; format: cell-based; details: Homo sapiens, NCI-H1417; 96-h incubation, means ± SD (n = 3–6)
Procedure: as §3

[5] = molecular target: T2, Bcl-xL (Mus musculus, UniProt Q64373); test: cellular thermal shift assay (CETSA), Bcl-xL; format: cell-based; details: 1 µM, 1 h, MEF MCL1−/− cells
T2 construct: endogenous in cells; host or cells: MEF MCL1-/- cells
Procedure: as §1, §2

[6] = test system: MCL1-wild-type (WT) MEF cells; test: cell growth inhibition, WST assay, wild-type MEF; format: cell-based; details: Mus musculus, 72 h, 3 days
Procedure: as §3, §4

[7] = test system: H82; test: SCLC cell growth inhibition (WST-8), H82; format: cell-based; details: Homo sapiens, NCI-H82; 96-h incubation, means ± SD (n = 3–6)
Procedure: as §3

[8] = test system: DMS53; test: SCLC cell growth inhibition (WST-8), DMS53; format: cell-based; details: Homo sapiens, DMS-53; 96-h incubation, means ± SD (n = 3–6)
Procedure: as §3

[9] = test system: DMS79; test: SCLC cell growth inhibition (WST-8), DMS79; format: cell-based; details: Homo sapiens, DMS-79; 96-h incubation, means ± SD (n = 3–6)
Procedure: as §3

[10] = test system: H889; test: SCLC cell growth inhibition (WST-8), H889; format: cell-based; details: Homo sapiens, NCI-H889; 96-h incubation, means ± SD (n = 3–6)
Procedure: as §3

[11] = test system: H196; test: SCLC cell growth inhibition (WST-8), H196; format: cell-based; details: Homo sapiens, NCI-H196; 96-h incubation, means ± SD (n = 3–6)
Procedure: as §3

[12] = test system: H1963; test: SCLC cell growth inhibition (WST-8), H1963; format: cell-based; details: Homo sapiens, NCI-H1963; 96-h incubation, means ± SD (n = 3–6)
Procedure: as §3

[13] = test system: DMS273; test: SCLC cell growth inhibition (WST-8), DMS273; format: cell-based; details: Homo sapiens, DMS-273; 96-h incubation, means ± SD (n = 3–6)
Procedure: as §3

[14] = test system: H146; test: SCLC cell growth inhibition (WST-8), H146; format: cell-based; details: Homo sapiens
Procedure: as §3
Data are representative of two independent experiments.

[15] = test system: H211; test: SCLC cell growth inhibition (WST-8), H211; format: cell-based; details: Homo sapiens, NCI-H211; 96-h incubation, means ± SD (n = 3–6)
Procedure: as §3

[16] = test system: SW1271; test: SCLC cell growth inhibition (WST-8), SW1271; format: cell-based; details: Homo sapiens, 96-h incubation, means ± SD (n = 3–6)
Procedure: as §3

[17] = test system: H187; test: SCLC cell growth inhibition (WST-8), H187; format: cell-based; details: Homo sapiens, NCI-H187; 96-h incubation, means ± SD (n = 3–6)
Procedure: as §3

[18] = molecular target: Bcl-2 (Homo sapiens, UniProt P10415); details: cited from earlier work
[19] = molecular target: Bcl-xL (Homo sapiens, UniProt Q07817); details: cited from earlier work
[20] = test system: H146 small-cell lung cancer xenograft; design: method as in PMID 23448298; details: H146 xenograft in SCID mice; cited from earlier work
[21] = test system: four small-cell lung cancer cell lines sensitive to ABT-263; design: method as in PMID 23448298; details: cited from earlier work

T2 sequence (Q64373 whole entry): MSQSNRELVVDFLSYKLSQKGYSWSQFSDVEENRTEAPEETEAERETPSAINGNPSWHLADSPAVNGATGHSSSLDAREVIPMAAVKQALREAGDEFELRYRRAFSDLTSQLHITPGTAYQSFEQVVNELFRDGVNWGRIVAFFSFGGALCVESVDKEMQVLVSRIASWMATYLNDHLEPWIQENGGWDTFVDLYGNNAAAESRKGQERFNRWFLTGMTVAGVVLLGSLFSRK
Bcl-xL (Homo sapiens, UniProt Q07817), sequence (Q07817 whole entry): as the sequence (Q64373 whole entry) above, with E40G, A43S, R45M, S168A, D193E counted along it
Bcl-2 (Homo sapiens, UniProt P10415), sequence (P10415 whole entry): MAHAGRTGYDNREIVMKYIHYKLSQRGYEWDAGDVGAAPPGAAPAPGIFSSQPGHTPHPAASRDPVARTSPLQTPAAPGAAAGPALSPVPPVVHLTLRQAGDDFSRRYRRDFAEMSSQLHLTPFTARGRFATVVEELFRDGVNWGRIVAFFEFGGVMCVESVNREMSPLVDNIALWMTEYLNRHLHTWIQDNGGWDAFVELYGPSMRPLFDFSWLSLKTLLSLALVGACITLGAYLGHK
T1 sequence (P10417 whole entry): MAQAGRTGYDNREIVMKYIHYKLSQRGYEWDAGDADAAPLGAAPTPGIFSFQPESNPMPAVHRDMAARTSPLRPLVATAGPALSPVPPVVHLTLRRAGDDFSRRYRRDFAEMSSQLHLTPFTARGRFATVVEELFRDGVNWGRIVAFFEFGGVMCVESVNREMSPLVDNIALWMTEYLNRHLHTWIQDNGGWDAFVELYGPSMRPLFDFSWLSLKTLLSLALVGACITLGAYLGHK

thermal stability of Bcl-2 protein [2]: enhanced
IC50 [4]: 79 ± 31 nM
thermal stability of Bcl-xL protein [5]: enhanced
IC50 [10]: 30 ± 11 nM
IC50 [11]: > 2000 nM
IC50 [12]: 30 ± 17 nM
IC50 ([14]; NCI-H146, 96 h, read-out: IC50 (1% FBS), H146, 4 days, WST assay, 1% FBS): 3.5 nM
IC50 ([14]; NCI-H146, 96 h, read-out: IC50 (1% FBS+3% HSA), H146, 4 days, WST assay, 1% FBS+3% HSA): 83 nM
IC50 ([14]; NCI-H146, 96 h, read-out: IC50 (10% FBS), H146, 4 days, WST assay, 10% FBS): 26.8 nM
IC50 ([14]; NCI-H146, 96 h, read-out: IC50 (50% FBS), H146, 4 days, WST assay, 50% FBS): 75.2 nM
IC50 ([14]; NCI-H146, 96-h incubation, means ± SD (n = 3–6), read-out: IC50 cell growth, H146): 24 ± 12 nM
IC50 [15]: 66 ± 50 nM
IC50 [16]: > 2000 nM
IC50 [17]: 70 ± 29 nM
Structure (SMILES): CC1(C)CCC(c2ccc(Cl)cc2)=C(CN2CCN(c3ccc(C(=O)NS(=O)(=O)c4ccc(N[C@H](CCN5CCOCC5)CSc5ccccc5)c(S(=O)(=O)C(F)(F)F)c4)cc3)CC2)C1 [ABT-263, reference compound]
tumors regrown 29 days after the last treatment ([1]; 100 mg/kg daily oral dosing): Four out of 8
tumors regrown 57 days after the last treatment ([1]; 100 mg/kg daily oral dosing): 7 of the 8
tumor regression ([1]; 100 mg/kg daily oral dosing (5 days per week), 14 days after the start of the treatment): regressed H146 tumors to a barely palpable state
weight loss compared to control group ([1]; all dose-schedules in H146 model, no other signs of toxicity): no statistically significant weight loss
IC50 [3]: 41 ± 3 nM
IC50 [6]: > 2000 nM
IC50 [7]: > 2000 nM
IC50 [8]: 197 ± 50 nM
IC50 [9]: 430 ± 343 nM
IC50 [13]: > 2000 nM

Structure (SMILES): Cc1c(C(=O)NS(C)(=O)=O)c(-c2cccc(N3CCN(c4ccc(NS(=O)(=O)c5ccc(N[C@H](CCN(C)C)CSc6ccccc6)c([N+](=O)[O-])c5)cc4)CC3)c2)c(-c2ccc(Cl)cc2)n1C(C)C [BM-1074]
Ki [18]: < 1 nM
Ki [19]: < 1 nM
tumor regression [20]: rapid, complete, and durable tumor regression
IC50 ([21]; four small-cell lung cancer cell lines sensitive to ABT-263, read-out: IC50 cancer cell growth): 1 to 2 nM
times more potent than ABT-263 ([21]; four small-cell lung cancer cell lines): > 10 times

Reference: paper PMC4047118, “BM-1197: A Novel and Specific Bcl-2/Bcl-xL Inhibitor Inducing Complete and Long-Lasting Tumor Regression In Vivo” (PLoS ONE, 2014)
